Results: patent US11357752B2, “Carolacton and derivatives thereof for use in the treatment of cell proliferation disorders” (Helmholtz-Zentrum für Infektionsforschung GmbH, priority 2017, dated 2022)
Entries after “also recorded” stand apart in the source; their conditions may differ.

Assays:
[1] = target: T1, ecFoID Q98H (Escherichia coli, UniProt P24186, Q98H); assay: Surface plasmon resonance assay; type: binding, E. coli
T1 construct: made in house; host or cells: E. coli BL21 (DE3)
Description: (§1) All surface plasmon resonance (SPR) experiments described in this study were performed on a Biacore X100 system. Different FoIDs with or without His-tag were coupled on CM5 sensor chips (GE Healthcare) by the amine coupling method using a kit from GE Healthcare Life Sciences (Freiburg, Germany). A pH scouting process was performed before protein immobilization to test the most appropriate buffer and the protein concentration for protein coupling. Finally, 20 μg/mL of ecFoID in 10 mM maleate buffer (pH 6.8), 30 μg/mL of ecFoID Q98H in 10 mM maleate buffer (pH 6.3), 40 μg/mL of ecFoID K54N in 10 mM maleate buffer (pH 5.8), 20 μg/mL of spFoID in 10 mM maleate buffer (pH 6.0) and 15 μg/mL of MTHFD2 (His-tag cleaved) in 10 mM maleate buffer (pH 6.8) were used for coupling. In the protein immobilization procedure, the contact time was calculated based on the pH scouting results to achieve -3000-5000 relative resonance units (RU). The buffer used in the SPR assays was 1×HBS-P buffer (10 mM HEPES pH 7.4, 150 mM NaCl, 0.05% Tween 20). The 1 mM stock solution of carolacton was prepared in 1×HBS-P buffer and diluted to different concentration ranges by two-fold serial dilution. In the SPR assay, the association time was 180 s and the dissociation time was 600 s. Data analysis was performed using the Biacore evaluation software. The SPR curves were exported to be re-plotted in OriginPro 2016 (OriginLab, Northampton, Mass., US).

[2] = target: T2, ecFoID K54N (Escherichia coli, UniProt P24186, K54N); assay: Surface plasmon resonance assay; type: binding, E. coli
T2 construct: made in house; host or cells: E. coli BL21 (DE3)
Description: as §1

[3] = target: T3, ecFoID (Escherichia coli, UniProt P24186); assay: Surface plasmon resonance assay; type: binding, E. coli
T3 construct: His-tag (vector pHis-TEV); made in house; host or cells: E. coli BL21 (DE3)
Description: as §1

[4] = tested on: S. pneumoniae TIGR4Δfhs; assay: Planktonic growth of S. pneumoniae fhs deletion mutant; type: cell-based, Streptococcus pneumoniae; conditions: S. pneumoniae fhs inactivated mutant; 0.25 μg/ml carolacton
Description: FIG. 4. Carolacton effects on S. pneumoniae TIGR4 and foID deletion, complementation and fhs deletion mutants. (A) Growth inhibition of planktonic cultures of S. pneumoniae TIGR4 wild type, ΔfoID deletion mutant and controls in THBY. Carolacton (caro) (0.25 μg/ml) was added at an optical density of 600 nm (OD600) of 0.15. (B) Planktonic growth of the S. pneumoniae TIGR4 wild type and the TIGR4Δfhs mutant in THBY. Cultures were treated with 0.25 μg/ml carolacton (OD600 0.15).
The Streptococcus mutans and Streptococcus pneumoniae strains used herein are UA159 and TIGR4, respectively. S. pneumoniae TIGR4 was routinely grown on Columbia blood agar plates (BD Biosciences) as described previously (Donner et. al, 2016). Streptococci were grown in Todd-Hewitt-Broth +1% (w/v) yeast extract (THBY, BD Biosciences)) at 37° C. and 5% CO2. The E. coli ToIC strain used in carolacton-resistant mutant development is an antibiotic-sensitive E. coli strain without its outer membrane channel protein ToIC. E. coli DH1OB or DH5α strain was used for gene cloning and E. coli BL21 (DE3) was used for protein expression. The protein expression plasmid pHis-TEV (Liu et al., 2009) was used for cloning and expression of all different foID gene orthologues studied herein.

[5] = tested on: S. mutans ΔfoID biofilms; assay: S. mutans biofilm viability assay, foID deletion mutant; type: cell-based, Streptococcus mutans; conditions: 2.5 μg/ml carolacton
Description: According to Reck et al., 2011, S. mutans biofilms were grown in THBY+0.5% (w/v) sucrose in the presence of 2.5 μg/ml carolacton (cf. SI Methods). Cell viability was determined by staining of 20 h-old S. mutans biofilms with the LIVE/DEAD Viability Kit (Invitrogen) and by measuring fluorescence with a Victor^3 multilabel counter (Perkin-Elmer). Subsequently, the green/red fluorescence ratio was calculated and the relative inhibition of the treated biofilms determined in comparison to the untreated control.
For determination of Carolacton-induced cell death of S. mutans biofilms, o/n cultures of S. mutans were diluted to an OD600 of 0.01 in THBY+0.5% (w/v) sucrose. 10 μl of a Carolacton solution (2.5 μg/ml and 0.25 μg/ml in methanol) was pipetted into the wells of black a 96-well polystyrene Nunc MicroWell plates with transparent bottoms (ThermoFisher); control wells contained 10 μl of methanol. […]
The viability of S. mutans biofilm cells was assayed by staining with the commercially available Live/Dead staining kit (Invitrogen). […] Green and red fluorescence values of stained cells were measured using a Victor^3 fluorescence plate reader (Perkin-Elmer). The green/red ratio of treated and untreated cells was calculated and the relative cell death within Carolacton-treated biofilms determined relative to the untreated controls (Reck et al., 2011).

`CO[C@H](CC(=O)O)[C@@H](C)C(=O)[C@H](C)/C=C(\C)[C@H]1OC(=O)[C@H](O)[C@H](O)/C=C/[C@H](C)CCC[C@@H]1C` [Carolacton, carolacton] was tested, and the Kd [1] was 20 µM, the “binding (SPR), in words” value ([1]; ecFoID Q98H) was “weak binding” and the “binding (SPR), in words” value [2] was “no binding; also recorded: does not bind”. The Kd [3] was 0.01 µM, the “inhibition of planktonic growth” value [4] was “complete inhibition” and the “sensitivity of biofilms to carolacton treatment” value [5] was “fully insensitive”.
